Data set [1] concerns bovine aortic endothelial cells (bAECs). How it is done:
Primary cultures of bAECs were established from five female beef cattle (ranging in age from 1 to 2 years old) according to the method of Fenselau and Mello (Cancer Res. 36:3269-3273, 1976). Pooled cells were routinely maintained under humidified air (5% CO2) at 37° C. in Dulbecco's modified medium supplemented with 10% fetal bovine serum (FBS). Cells from the second to the fifth passages were used in these studies.
In the studies in which male and female bAECs were compared, batches of bAECs were independently established from 5 female and 4 male beef cattle (ranging in age from 1 to 2 years old) according to the method of Fenselau and Mello (Cancer Res. 36:3269-3273, 1976). Otherwise, the cells were treated and assessed as described in the paragraph above.
(§1) Prior to E2 pretreatment, cells were grown in phenol red-free DMEM supplemented with 10% dextran/charcoal-stripped FBS for at least 1 passage (3-4 days). Phenol red-free Dulbecco's modified medium was used to avoid potential estrogenic interference. Serum steroid deprivation was conducted according to the conditions described by Yeh et al. (Proc. Natl. Acad. Sci. USA 95:5527-5532, 1998). The E2 level in the stripped serum was assayed using an [^125I] 17β-estradiol radioimmunoassay kit (TKE21, Diagnostic Products Corporation, Los Angeles, Calif.). […] The cells grown in E2-free environments were plated onto Falcon 24-well Primariae™ plates at a density of 5×10^4 cells/well. E2 in dimethylsulfoxide (DMSO) was added to each well at final concentrations ranging from 1 nM to 10 μM 3 hours after plating, and the cells were then incubated for 24 hours (a duration commonly used for the studies of the genomic effects of E2) at 37° C. Control cells were treated with a corresponding amount of DMSO (a final concentration 0.05%).
Prior to oxidative challenge, E2-containing media was removed, and the cells were rinsed with PBS twice and re-fed with serum-free fresh medium. Subsequently, paraquat was added to the cells at the indicated doses (0.1-2.0 mM) for 3 hours. The oxidative challenge was terminated by aspiration of the oxidant-containing medium and quickly rinsing the cells twice with PBS. The cells were allowed to recover for 48 hours in medium supplemented with 10% regular FBS to exclude the possibility that different concentrations of E2 interfere with the cellular recovery processes.
Cell survival after oxidative challenge was assessed with a 3-(4,5-dimethylthiazol-2-yl) 2,5 diphenyltetrazolium bromide (MTT) assay in which the mitochondrial dehydrogenase activity of viable cells reduces MTT to a blue formazan product (Carmichael et al. Cancer Res. 47:936-942, 1987). Our prior conditions were employed (Si et al., Endocrine in press, 2001). Briefly, cells were treated with 1/10 volume of MTT solution (5 mg/ml in PBS) and incubated at 37° C. for 2 hours. The supernatant was then removed, and 600 μl of lysis buffer (50% dimethyl formamide, 5% sodium dodecyl sulphate, 0.35 M acetic acid, 50 mM HCl) was added to each well. Following cell lysis, the absorbency was measured at 570 nm and used as an indicator of relative cell survival. The surviving fraction was calculated as compared to the cells without paraquat challenge.
Two experimental groups were created. In the first group, E2 was added only during the 24-hour pretreatment period. In the second group, E2 was added only during the 3-hour paraquat exposure.

Data set [2] has the same test system. On the procedure:
as §1
To study the difference between male and female cells in their response to E2, bAECs from male and female animals were treated with various concentrations of E2 for 24 hours and then challenged with paraquat (1,1′-dimethyl-4,4′-bipyridinium dichloride, methyl viologen). Paraquat was used because it generates the superoxide anion O2 in living cells. […] Accordingly, E2 ranging in concentration from 1 nM to 10 μM was used in these studies.
The source holds these as a separate data set.

Data set [3] has as its system LDL. The note with it: 5-50 μM; oxidation by copper ions, monocytes, or endothelial cells; cited from earlier work.
Data set [4] concerns endothelial nitric oxide synthase. The note with it: cited from earlier work.
[5] abbreviates: 24 h pretreatment, paraquat challenge.

Take `C[C@]12CC[C@@H]3c4ccc(O)cc4CC[C@H]3[C@@H]1CC[C@@H]2O` [E2, 17β-estradiol]: in data set [1], the “E2 dosage that defended cells when present during oxidative challenge” value was 10 µM, the “oxidant protection with E2 present during paraquat exposure” value is “mild but notable oxidant protection”, the “oxidative protection after brief preincubation” value is given as “not effective in providing oxidative protection” and the “oxidative resistance (MTT survival)” value is listed as “marked augmentation of oxidative resistance”. In data set [1], the “protection against subsequent oxidative challenge” value was “acquired significant protection against subsequent oxidative challenge” and the “resistance to paraquat toxicity (cell survival)” value is listed as “enhanced resistance to the toxic effect of paraquat”. In data set [1] (setting [5]), the “E2 concentration of optimal protection” value lay in the range of 1 to 10 nM and the “E2 dosage at which protection gradually declined in magnitude” value is listed as “about 1 μM”. Besides, the “protection after brief estrogenic exposure” value in data set [1] (E2 30 minutes only, washed, male or female endothelial cells) is “No protection by E2”. Moreover, in data set [1] (cells pretreated with 1 nM E2 for 24 h), the “LD50 of paraquat toxicity in E2-pretreated cells” value is “about 1 mM”. Besides, the “magnitude of protection at elevated E2” value in data set [1] (female bAECs, E2 0.1-10 μM, P<0.05 vs. 1 nM) is “gradually decreased”. Besides, the “protection against paraquat challenge” value in data set [1] (male bAECs, E2 pretreatment at any tested concentration) was “no protection was seen”. For the same molecule, the “E2 concentration that suppressed growth” value in data set [2] (both, bovine, 24 h) was at least 100 µM. Also, the “E2 concentration that significantly inhibited endothelial cell growth” value in data set [2] (female, bovine, 24 h) was at least 100 µM. Moreover, the “cell count without subsequent paraquat exposure” value in data set [2] (groups pretreated with various doses of E2, comparable among groups, average) is given as 3.1×10^5 per well. In data set [3], the “effect on LDL oxidation” value was “inhibit LDL oxidation”. For the same molecule, the “optimal concentration of E2 for endothelial nitric oxide synthase induction” value in data set [4] was 1 to 10 nM.

Values taken from patent US20020164581A1 (priority 2001, published 2002).
